1 compound from ChEMBL document CHEMBL4842388, “Discovery of Potent, Selective, and Brain-Penetrant Apoptosis Signal-Regulating Kinase 1 (ASK1) Inhibitors that Modulate Brain Inflammation In Vivo” (J Med Chem, 2021) can be followed below.

One assay has as its target Adenosine receptor A2a (Homo sapiens, UniProt P29274). As to the kind of experiment: Inhibition of A2A receptor (unknown origin).
Assay [1] has as its target 5-hydroxytryptamine receptor 2B (Homo sapiens, UniProt P41595). As to the kind of experiment: Inhibition of 5HT2B receptor (unknown origin).
For assay [2], the target named is T1, Mitogen-activated protein kinase kinase kinase 5 (Mus musculus) (UniProt O35099).
T1 sequence (whole entry): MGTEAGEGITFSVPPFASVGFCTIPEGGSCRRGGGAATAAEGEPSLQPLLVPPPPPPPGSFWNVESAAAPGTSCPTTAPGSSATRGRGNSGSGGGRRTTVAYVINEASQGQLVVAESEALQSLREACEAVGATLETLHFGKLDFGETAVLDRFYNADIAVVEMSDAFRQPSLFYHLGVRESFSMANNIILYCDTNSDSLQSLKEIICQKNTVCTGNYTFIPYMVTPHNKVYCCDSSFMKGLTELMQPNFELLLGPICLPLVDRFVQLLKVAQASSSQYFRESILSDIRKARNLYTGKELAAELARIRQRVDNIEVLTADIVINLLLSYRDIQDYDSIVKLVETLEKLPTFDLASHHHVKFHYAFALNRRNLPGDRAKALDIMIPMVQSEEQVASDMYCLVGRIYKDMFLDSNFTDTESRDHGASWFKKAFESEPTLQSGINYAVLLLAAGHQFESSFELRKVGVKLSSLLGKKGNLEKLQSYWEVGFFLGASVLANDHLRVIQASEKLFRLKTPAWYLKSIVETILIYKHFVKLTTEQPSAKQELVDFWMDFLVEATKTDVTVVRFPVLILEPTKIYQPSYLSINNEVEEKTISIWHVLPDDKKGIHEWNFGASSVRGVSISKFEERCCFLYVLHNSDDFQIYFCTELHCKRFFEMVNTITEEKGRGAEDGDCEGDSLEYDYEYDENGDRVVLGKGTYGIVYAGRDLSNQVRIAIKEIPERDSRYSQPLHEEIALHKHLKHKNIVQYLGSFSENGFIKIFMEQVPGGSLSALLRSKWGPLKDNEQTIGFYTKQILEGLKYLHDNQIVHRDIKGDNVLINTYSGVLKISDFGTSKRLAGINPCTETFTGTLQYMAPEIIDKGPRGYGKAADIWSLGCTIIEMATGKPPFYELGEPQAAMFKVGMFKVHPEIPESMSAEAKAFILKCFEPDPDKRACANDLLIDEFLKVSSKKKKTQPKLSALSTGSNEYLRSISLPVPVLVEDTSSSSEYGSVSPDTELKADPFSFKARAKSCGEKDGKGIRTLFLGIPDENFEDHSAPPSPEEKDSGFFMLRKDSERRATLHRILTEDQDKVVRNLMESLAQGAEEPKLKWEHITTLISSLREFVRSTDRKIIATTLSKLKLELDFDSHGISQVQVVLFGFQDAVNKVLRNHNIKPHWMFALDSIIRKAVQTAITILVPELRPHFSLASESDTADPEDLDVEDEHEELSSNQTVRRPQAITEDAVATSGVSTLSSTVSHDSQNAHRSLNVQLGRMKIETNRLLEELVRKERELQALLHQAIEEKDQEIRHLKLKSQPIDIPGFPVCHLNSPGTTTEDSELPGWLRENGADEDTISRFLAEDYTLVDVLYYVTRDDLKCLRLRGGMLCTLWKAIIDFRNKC
As to the kind of experiment: In vivo inhibition of ASK1 in Tg4510 mouse model of Alzheimer's disease assessed as reduction in KC/GRO levels in cortex at 3 to 30 mg/kg, po BID for 3 days measured after 4 hrs post last dose by ELISA. The class given is functional, organism-based. As to conditions: dose 3-30 mg/kg, time 3.0 day. Background: An ELISA detects its analyte on a solid surface through an enzyme-linked reagent.

The target in assay [3] is T1, Mitogen-activated protein kinase kinase kinase 5 (Mus musculus). As to the kind of experiment: In vivo inhibition of ASK1 in Tg4510 mouse model of Alzheimer's disease assessed as reduction in MCP-1 levels in cortex at 3 to 30 mg/kg, po BID for 3 days measured after 4 hrs post last dose by ELISA. The class given is functional, organism-based. As to conditions: dose 3-30 mg/kg, time 3.0 day.

In assay [4] the target is T2, Mitogen-activated protein kinase kinase kinase 5 (Homo sapiens, UniProt Q99683).
T2 sequence (Q99683 whole entry): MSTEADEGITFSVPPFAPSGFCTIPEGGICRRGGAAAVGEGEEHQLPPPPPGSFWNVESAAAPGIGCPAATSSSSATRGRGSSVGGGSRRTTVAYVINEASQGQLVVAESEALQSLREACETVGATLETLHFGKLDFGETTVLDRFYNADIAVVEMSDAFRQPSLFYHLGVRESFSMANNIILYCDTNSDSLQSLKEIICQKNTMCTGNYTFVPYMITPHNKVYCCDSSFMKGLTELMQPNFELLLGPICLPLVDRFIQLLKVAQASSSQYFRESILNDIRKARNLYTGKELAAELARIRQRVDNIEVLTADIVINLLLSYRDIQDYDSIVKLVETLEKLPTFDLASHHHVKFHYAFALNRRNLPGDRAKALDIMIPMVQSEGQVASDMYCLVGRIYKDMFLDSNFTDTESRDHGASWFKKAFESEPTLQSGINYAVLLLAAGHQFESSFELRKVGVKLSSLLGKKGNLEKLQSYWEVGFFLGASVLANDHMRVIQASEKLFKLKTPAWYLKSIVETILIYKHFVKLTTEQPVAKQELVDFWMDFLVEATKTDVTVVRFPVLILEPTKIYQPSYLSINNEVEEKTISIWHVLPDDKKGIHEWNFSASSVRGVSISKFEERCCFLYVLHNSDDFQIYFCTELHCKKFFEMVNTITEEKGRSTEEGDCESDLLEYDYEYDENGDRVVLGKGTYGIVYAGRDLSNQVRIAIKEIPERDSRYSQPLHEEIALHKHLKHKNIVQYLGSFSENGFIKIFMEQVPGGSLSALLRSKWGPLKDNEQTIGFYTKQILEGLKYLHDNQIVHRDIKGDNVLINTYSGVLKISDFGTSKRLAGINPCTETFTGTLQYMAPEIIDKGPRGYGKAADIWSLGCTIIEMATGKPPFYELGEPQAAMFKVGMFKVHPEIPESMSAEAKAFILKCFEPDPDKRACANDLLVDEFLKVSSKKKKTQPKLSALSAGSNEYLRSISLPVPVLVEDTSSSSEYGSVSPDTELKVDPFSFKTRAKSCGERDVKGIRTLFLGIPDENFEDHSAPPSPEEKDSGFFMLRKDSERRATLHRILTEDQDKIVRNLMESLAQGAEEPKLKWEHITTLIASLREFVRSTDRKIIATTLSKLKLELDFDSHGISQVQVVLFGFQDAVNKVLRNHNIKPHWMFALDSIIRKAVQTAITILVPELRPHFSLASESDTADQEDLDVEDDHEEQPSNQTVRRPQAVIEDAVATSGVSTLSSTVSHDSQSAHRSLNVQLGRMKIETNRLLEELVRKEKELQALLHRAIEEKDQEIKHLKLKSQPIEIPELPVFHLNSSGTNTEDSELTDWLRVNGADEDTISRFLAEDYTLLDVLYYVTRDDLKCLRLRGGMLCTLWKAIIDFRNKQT
As to the kind of experiment: Inhibition of ASK1 (unknown origin) using myelin basic protein as substrate preincubated for 20 mins followed by 33P-ATP addition and measured after 2 hrs.

Assay [5] deals with T1, Mitogen-activated protein kinase kinase kinase 5 (Mus musculus). As to the kind of experiment: In vivo inhibition of ASK1 in Tg4510 mouse model of Alzheimer's disease assessed as reduction in IL-1beta levels in cortex at 3 to 30 mg/kg, po BID for 3 days measured after 4 hrs post last dose by ELISA. The class given is functional, organism-based. As to conditions: dose 3-30 mg/kg, time 3.0 day.

In assay [6] the target is T2, Mitogen-activated protein kinase kinase kinase 5. Put plainly: Inhibition of full-length human ASK1 expressed in HEK293T cells assessed as reduction in autophosphorylation of ASK1 at […] residue incubated for 1 hr. It is filed as cell-based.

Active and inactive are the calls of the source. The calls are words filed in the database; no cut-off is given here.

Chain of Adenosine receptor A2a (P29274 whole entry): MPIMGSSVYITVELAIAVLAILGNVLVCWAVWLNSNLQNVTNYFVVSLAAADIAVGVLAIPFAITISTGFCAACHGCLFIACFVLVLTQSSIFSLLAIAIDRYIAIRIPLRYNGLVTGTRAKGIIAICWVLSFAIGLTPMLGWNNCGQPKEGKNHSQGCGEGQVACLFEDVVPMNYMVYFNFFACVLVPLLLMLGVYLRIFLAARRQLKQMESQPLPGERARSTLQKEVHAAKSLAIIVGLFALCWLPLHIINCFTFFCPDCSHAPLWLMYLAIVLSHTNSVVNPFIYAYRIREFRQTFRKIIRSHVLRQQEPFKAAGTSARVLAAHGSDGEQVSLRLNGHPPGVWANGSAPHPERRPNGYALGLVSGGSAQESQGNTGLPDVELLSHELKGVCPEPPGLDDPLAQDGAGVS
Chain of 5-hydroxytryptamine receptor 2B (P41595 whole entry): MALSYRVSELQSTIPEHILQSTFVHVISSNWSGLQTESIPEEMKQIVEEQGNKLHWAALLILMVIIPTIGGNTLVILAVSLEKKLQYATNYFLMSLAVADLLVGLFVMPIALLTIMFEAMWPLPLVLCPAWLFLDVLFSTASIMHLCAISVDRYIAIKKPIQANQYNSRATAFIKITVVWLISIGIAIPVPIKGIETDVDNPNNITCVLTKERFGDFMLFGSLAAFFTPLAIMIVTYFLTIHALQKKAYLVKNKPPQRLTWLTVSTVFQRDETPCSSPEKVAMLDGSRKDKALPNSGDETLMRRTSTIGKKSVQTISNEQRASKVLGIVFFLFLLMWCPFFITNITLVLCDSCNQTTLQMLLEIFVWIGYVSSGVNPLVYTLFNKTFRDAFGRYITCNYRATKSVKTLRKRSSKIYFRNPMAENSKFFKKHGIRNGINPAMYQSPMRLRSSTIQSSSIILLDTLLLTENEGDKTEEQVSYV

On to `COc1ncc(F)cc1C(=O)Nc1cccc(-c2nncn2[C@@H](C)C(F)(F)F)n1`, for which the IC50 against Adenosine receptor A2a is more than 1000 nM; in assay [1] it was more than 1000 nM; in assay [4] it was 7 nM; in assay [6], 25 nM. In addition, the inhibition entry in assay [2], in assay [3] and in assay [5] was “Active” throughout.

Broadly, the IC50 is the concentration that inhibits the measured activity by half.
